{"source": "patent US20070082928A1", "about": "“Method for treating anxiety disorders, substance abuse/dependence, binge-eating disorders, insomnia and drug-induced flashbacks” (priority 2005, published 2007)", "type_in_all_cases": "in vivo, human", "key": {"[1]": {"tested_on": "Person with GAD anxiety symptoms", "experiment": "Case history 3: donepezil in a patient with GAD anxiety symptoms persisting after MDD", "from_the_text": "A person complained about insomnia, restlessness, tension, headaches, gastric symptoms, upset stomach, dizziness, fatigue, loss of appetite, and libido deficit. A person has been married for 13 years. Their spouse is a person working as an assistant director. The couple was well functioning, with two children, a child and a child in good health. A person was in good physical health and had no significant medical antecedent. A person had no previous psychiatric antecedent, nor any family history of mental disorders. […] […] a person is the youngest of 14 brothers and sisters.\nA person was hospitalized in the Department of Psychiatry at Saint-Antoine Hospital and treated for MDD with venlafaxine from July 15 to Aug. […] Their anxiety consisted of excessive worrying, restlessness, tension, fatigue, loss of concentration, irritability, severe muscle tension and difficulty falling asleep. These symptoms met the GAD DSM IV criteria and persisted during the depressive episode and also when they no longer met the criteria for MDD. […] 9, 2005 to treat their anxiety symptoms. […] On Sep."}, "[2]": {"tested_on": "Person with Generalized Anxiety (GAD), PTSD and cannabis dependence", "experiment": "Case History 2: donepezil in a patient with GAD, PTSD, cannabis dependence, alcohol dependence and binge-eating disorder", "description": "a person has no other psychiatric antecedent.\nDespite them on-going biweekly psychotherapy, they continued to abuse cannabis at about 2 to 3 joints a day."}, "[3]": {"tested_on": "Person with post-traumatic stress disorder (PTSD)", "experiment": "Case History 1: donepezil in a rape victim with PTSD after suspected GHB intake", "from_the_text": "A person had been living in NYC for their work since January 2005. On Jun. 15, 2005, they met some friends after dinner and went dancing with them. They experienced a strange sensation late in the evening after drinking a glass of champagne. They remembered feeling drowsy and confused. They had to stop dancing because of a severe sedation and took a taxi. A […] they didn't know until now accompanied them to their apartment, which was unusual for them.\nThey didn't remember anything about the taxi drive and their trip back home. They remembered being with an unknown person and strangely being led down on their couch in their living room and looking at them.\nThereafter they repeatedly saw themself waking up in the morning and looking at their bed where they had discovered a preservative, a proof that a sexual behaviour had occurred between 2 and 6 am.\nThey experienced terrifying nightmares and repetitive uncontrolled behaviour consisting of looking at […] waking up alone with a desperate feeling of being sexually abused and of loneliness. […] About the evening and the rape they remembered only their inability to move, refusing sexual advances of the unknown person, and feeling uncomfortable because of their unusual behaviour.\nOn Jun. 20, 2005, they consulted in the Department of Psychiatry at Saint-Antoine Hospital in Paris. […] A legal procedure was initiated in NYC before coming back to Paris. […] A toxicological analysis was performed using hair sample for detection of the suspected drug GHB.\nDuring the initial interview, they were unable to give any detail about the evening and the night of the rape. A person requested a method to decrease their anxiety symptoms, insomnia and nightmares associated with the traumatic event. After a discussion about the case, it was decided on Jun."}, "[4]": {"settings": "5 mg once a day, after one week"}, "[5]": {"settings": "5 mg once a day, patient report"}, "[6]": {"settings": "two weeks after increase to 5 mg b.i.d."}, "[7]": {"settings": "5 mg once a day, after one week, on ongoing venlafaxine"}}, "data": [{"smiles": "COc1ccc(C(CN(C)C)C2(O)CCCCC2)cc1", "note": "(stereo not drawn) [venlafaxine]", "values": [{"measurement": "anxiety symptoms", "setting": "[1]; ongoing venlafaxine 100 mg t.i.d.", "result": "did not respond"}, {"measurement": "depression (MDD)", "setting": "[1]; treated from July 15 to Aug. 8, 2005, in hospital", "result": "recovered completely"}]}, {"smiles": "CN1CCN2c3ncccc3Cc3ccccc3C2C1", "note": "(stereo not drawn) [mirtazapine]", "values": [{"measurement": "depressive symptoms (MDD)", "setting": "[2]; 15 mg h.s. with biweekly psychotherapy, after 2 months of treatment", "result": "complete recovery"}]}, {"smiles": "COc1cc2c(cc1OC)C(=O)C(CC1CCN(Cc3ccccc3)CC1)C2.Cl", "note": "(racemic) [donepezil, (±)-2,3-dihydro-5,6-dimethoxy-2-[[1-(phenylmethyl)-4-piperidinyl]methyl]-1H-inden-1-one hydrochloride]", "values": [{"measurement": "alcohol intake", "setting": "[2]; 5 mg once a day", "result": "significantly produced a decrease"}, {"measurement": "verbal fluency and cognitive performances", "setting": "[2]; 5 mg once a day", "result": "did not improve"}, {"measurement": "binge-eating disorder", "setting": "[2]; [4]", "result": "completely disappeared"}, {"measurement": "nightmares", "setting": "[2]; [4]", "result": "completely disappeared"}, {"measurement": "craving for caffeine, nicotine, cannabis and binge-eating", "setting": "[2]; 5 mg once a day, follow-up", "result": "significantly improved to the extent of disappearing"}, {"measurement": "GAD anxiety symptoms (nervousness, muscle tension, restlessness, anxiety, worry, insomnia, and tremor)", "setting": "[2]; 5 mg once a day, follow-up August 30 and Sept. 2, 2005", "result": "much improved"}, {"measurement": "euphoria", "setting": "[2]; [5]", "result": "no longer euphoric"}, {"measurement": "judgement", "setting": "[2]; [5]", "result": "significantly improved"}, {"measurement": "motor coordination", "setting": "[2]; [5]", "result": "improved"}, {"measurement": "sensations of slowed time", "setting": "[2]; [5]", "result": "no more sensations of slowed time"}, {"measurement": "social withdrawal", "setting": "[2]; [5]", "result": "no longer socially withdrawn"}, {"measurement": "cannabis smoking", "setting": "[2]; 5 mg once a day, before: 2 to 3 joints a day", "result": "completely stop cannabis smoking without any withdrawal symptoms, nor craving symptoms"}, {"measurement": "effect of dose increase (nightmares related to drug withdrawal)", "setting": "[2]; increased to 5 mg b.i.d.", "result": "further improvement with disappearance of nightmares"}, {"measurement": "recall of details of the traumatic event", "setting": "[3]; 5 mg once a day, after 7 days", "result": "some of the details of the post-traumatic event"}, {"measurement": "sleep and nightmares", "setting": "[3]; 5 mg once a day, after 7 days", "result": "slept better without nightmares"}, {"measurement": "anxiety", "setting": "[3]; 5 mg once a day, after one week of treatment", "result": "began to feel less anxious"}, {"measurement": "anxiety and tension", "setting": "[3]; [6]", "result": "no more anxious nor tense"}, {"measurement": "sleep", "setting": "[3]; [6]", "result": "returned to normal without nightmares"}, {"measurement": "anti-anxiety effect", "setting": "[1]; [7]", "result": "definite anti-anxiety effect"}, {"measurement": "side effects", "setting": "[1]; [7]", "result": "No side effects were observed"}, {"measurement": "anxiety symptoms / return to work", "setting": "[1]; 6 days after increase to 5 mg b.i.d.", "result": "able to return to work without any anxious symptoms"}]}]}
